# Reference: patent US10501817B2, “Process for the manufacture of co-crystallized sucrose natural sweeteners and the products thereof” (IMPERIAL SUGAR COMPANY, priority 2010, dated 2019)
# What was measured:
# [1] = cited from earlier work; for times sweeter than sucrose: sweetness relative to sucrose/sugar
# [2] = Taste testing of sweetener compositions in water by trained descriptive panel; type: in vivo, human; settings: in water at room temperature; 12-point scale; aftertaste at 30 seconds
# From the text: A panel of trained and experienced descriptive panelists (Food Marketing Support Services, Inc.) tasted, described and documented sensory behavior of selected sweetener compositions in water at ambient (room) temperature. The sweetener samples tested were: sugar (100%; Imperial Sugar); Truvia (100%), a consumer brand Stevia sweetener containing a mixture erythritol and Rebiana; Reb-A 97 (100%; Pure Circle), a sugar (75% reduction)—rebaudioside A blended or granulized mixture; a sugar (50% reduction)—rebaudioside A blended or granulized mixture; a sugar/rebaudioside A co-crystallization product in accordance with the instantly described process and the resultant product with a 50% calorie reduction (Co-Crystal (50% Reduction)); and, a sugar/rebaudioside A co-crystallization product in accordance with the instantly described process and the resultant product with a 75% calorie reduction (Co-Crystal (75% Reduction).
# Sample Preparation: On the day of the testing panel, a predetermined weight of sugar or sweetener was weighed out. […]
# The beaker is gently swirled five (5) times, and the watch glass cover is removed. […] Sweetness was evaluated relative to standardized concentrations of sucrose in water. Samples were also evaluated for character nuances and quantifying attribute intensities such as residual mouth sensations and aftertastes, using a 12-point scale. […]
Structure (SMILES),"astringency, bitterness and aftertaste among diterpenoid glycoside sweeteners of Stevia extracts ([1]; in vivo)",times sweeter than sucrose [1],flavor/taste profile compared with pure sugar [2]
C=C1C[C@@]23CC[C@H]4[C@@](C)(CCC[C@@]4(C)C(=O)O[C@@H]4O[C@H](CO)[C@@H](O)[C@H](O)[C@H]4O)[C@@H]2CC[C@]1(O[C@@H]1O[C@H](CO)[C@@H](O)[C@H](O[C@@H]2O[C@H](CO)[C@@H](O)[C@H](O)[C@H]2O)[C@H]1O[C@@H]1O[C@H](CO)[C@@H](O)[C@H](O)[C@H]1O)C3 [rebaudioside A],"the least astringent, the least bitter, and with the least persistent aftertaste",200-300 times,most extreme flavor profile across the array
C=C1C[C@@]23CC[C@H]4[C@@](C)(CCC[C@@]4(C)C(=O)O[C@@H]4O[C@H](CO)[C@@H](O)[C@H](O)[C@H]4O)[C@@H]2CC[C@]1(O[C@@H]1O[C@H](CO)[C@@H](O)[C@H](O)[C@H]1O[C@@H]1O[C@H](CO)[C@@H](O)[C@H](O)[C@H]1O)C3 [stevioside],–,about 200 times,–
